Where “and” joins values, the source holds several entries; their conditions need not be identical. Equal entries are not always repeated. Entries after “also recorded” stand apart in the source; their conditions may differ.

The text below walks through data of patent US7968097B2, “Identification of Hla-A2-presented T-cell epitopes derived from the oncofoetal antigen-immature laminin receptor protein and uses thereof” (Immatics Biotechnologies GmbH, priority 2005, dated 2011).

The target of assay [1] is T1, HLA-A*0201 (Homo sapiens, UniProt P04439, /I218V/L300P/L318F/N151K/N90K/P208A/P217A/Q86G/Q94H/R138H/R169H/T345S).
T1 construct: using the TAP (transporter associated with antigen processing)-deficient T2 cell line; host or cells: T2 (human, TAP-deficient)
Briefly: T2 whole cell-binding assay (in vitro reconstitution assay, TAP-deficient T2 cell line). The conditions noted are these: compared with the Flu nucleoprotein58-66.

The test system of assay [2] is CD8+ T cells of HLA-A*0201+ individuals. Briefly: Generation of peptide-specific CTL lines with peptide-pulsed matured DC. Format: cell-based, human. Particulars: for generation of CTL lines from healthy HLA-A*0201+ donors: fully matured DC pulsed with the peptide; for generation of autologous peptide-specific CTL lines from patients: one patient with CLL and another with AML, tested against autologous and allogeneic HLA-A2-matched target cells. From the text:
The identification of T-helper cell epitopes of tumor associated antigens remains an important task in anti-tumor immunotherapy. To identify T cell-binding epitopes deduced from the OFA-iLR protein, 14 peptides were synthesized (see below) that were predicted by the computer programs PAProC (http://www.uni-tuebingen.de/uni/kxi/) and SYFPEITHY (http://www.syfpeithi.de) to bind to the HLA-A*0201 molecule.
(§1) CTL derived from healthy HLA-A*0201^+ individuals were generated using a protocol described elsewhere (Zeis M, Siegel S, Schmitz M et al. Induction of cytotoxic T lymphocytes against hematologic neoplasms by survivin RNA-transfected dendritic cells. J Immunol. 2003; 170, 5391-5397.). For the induction of autologous OFA/ILR, peptide-specific CTL obtained from patients with AML and CLL, CD8^+ T cells were separated from PBMC using immunomagnetic beads (MACS®, Miltenyi, Bergisch-Gladbach, Germany), cultured with autologous OFA/iLR peptide-pulsed fully matured DC and restimulated with autologous peptide-pulsed PBMC in the presence of IL-2 (1 ng/ml, CellConcepts, Weisskirch, Germany). After at least four weekly restimulations, CTL reactivity was determined in a conventional 4 h ^51Chromium release assay. Cold target inhibition assays and antibody blocking experiments were performed as previously described (Zeis M, Siegel S, Schmitz M et al. Induction of cytotoxic T lymphocytes against hematologic neoplasms by survivin RNA-transfected dendritic cells. J Immunol. 2003; 170, 5391-5397.).

Assay [3] relates to PBMC of HLA-A*02 positive AML patients. Nature of the assay: IFN-γ ELISPOT, AML patients. The conditions noted are these: for samples with significant (>20) CTL responses against peptide: AML patient samples, IFN-γ ELISPOT; for # of positively stained spots (IFN-γ ELISPOT): AML patients, HLA-A*02 positive, one value per patient (table line), T cells cultured seven days with IL-2.
Protocol: (§2) To determine the frequency of OFA/iLR peptide-specific T cells in patients, ELISPOT-assays were performed using the Interferon-γ-ELISPOT-Kit (Becton Dickinson, Heidelberg, Germany) according to manufacturer's instructions.
(§3) Prior to analysis, T cells from patients and healthy donors had been kept in culture for seven days in the presence of Interleukin-2 (IL microgram/10^6 PBMC/milliliter).

In assay [4] the test system is T cells of HLA-A*0201+ patients with hematological malignancies. Briefly: IFN-γ ELISPOT, pooled HLA-A*0201+ AML, CLL and multiple myeloma patients. The conditions noted are these: 50 HLA-A*0201+ patients with hematological malignancies. Type of assay: cell-based, human. As to the method:
To determine the frequency of iLR1- and iLR2-specific T cells in HLAA*0201^+ AML, CLL and multiple myeloma patients, ELISPOT IFNI’ secretion assay (Tables 3-5) were performed.

Assay [5] deals with PBMC of HLA-A*02 positive CLL patients. Nature of the assay: IFN-γ ELISPOT, CLL patients. The conditions noted are these: for samples with significant (>20) CTL responses against peptide: CLL patient samples, IFN-γ ELISPOT; for # of positively stained spots (IFN-γ ELISPOT): CLL patients, HLA-A*02 positive, one value per patient (table line), T cells cultured seven days with IL-2.
Protocol: as §2, §3

Assay [6] relates to peptide-pulsed T2 cells. Briefly: Lysis of peptide-pulsed T2 target cells by peptide-specific CTL (peptide titration). Type of assay: cell-based, human. The conditions noted are these: for affinity of peptide-specific CTL to the peptide/MHC complex: peptide titration curves.
Assay [7] concerns tumor cells from CLL patients. Nature of the assay: 51Chromium release assay, peptide-specific CTL on tumor cells from CLL patients. Format: cell-based, human. The conditions noted are these: for A*02-positive CLL patients in whom the peptide is a tumor-associated antigen: summary of two experiments; for recognition of CLL cells from A*02-negative patients by peptide-specific T cells / recognition of CLL cells from A*02-positive patients by peptide-specific T cells: two experiments.
From the text: as §1
T cells specific for HLA-A*02-restricted ILR1 were tested on tumor cells from CLL patients (5 patients; samples CLL-01, -02, -03, -05, -06). […] The experiment was repeated (FIG. 3A) with 8 more CLL patients, of whom 4/8 were A*02-positive. […] In summary: • 1. ILR1 is a tumor-associated antigen in 100% (7/7) of A*02-positive CLL patients tested. • 2. ILR1 is restricted by HLA-A*02. Target: T2
T cells specific for HLA-A*02-restricted ILR2 were tested on tumor cells from CLL patients (8 patients; samples CLL-01, -02, -03, -04, -05, -06, -07, -08). […] The experiment was repeated (FIG. 9B) with 5 more CLL patients, of whom 3/5 were A*02-positive. […] Conclusion-and-summary: • 1. ILR2 is a tumor associated antigen in 100% (7/7) of A*02-positive CLL patients tested. • 2. ILR2 is restricted by HLA-A*02. Target: T2

Assay [8] concerns tumor cells from AML patients. Nature of the assay: 51Chromium release assay, peptide-specific CTL on tumor cells from AML patients. Type of assay: cell-based, human. Particulars: for recognition of AML cells from A*02-negative patients by peptide-specific T cells / recognition of AML cells from A*02-positive patients by peptide-specific T cells: 1st and 2nd experiment; for A*02-positive AML patients in whom the peptide is a tumor-associated antigen: summary of two sets of experiments.
From the text: as §1
T cells specific for HLA-A*02-restricted ILR1 were tested on tumor cells from AML patients (4 patients; samples AML-01, -02, -03, -06) (FIG. 4A). Cells from A*02-positive patients (3/4) were recognized with maximum lysis at an E:T ratio of 40:1 ranging between 25,9% and 39,8%.
T cells specific for HLA-A*02-restricted ILR1 were tested on tumor cells from AML patients for a second time to confirm the results obtained in the 1st experiment (9 patients; samples AML-01, -02, -04, -05, -06, -07, -09, -10, -12).
T cells specific for HLA-A*02-restricted ILR2 were tested on tumor cells from AML patients (8 patients; samples AML-01, -02, -04, -05, -06, -07, -10, -12). […] The experiment was conducted a 2nd time with samples from patients […]. In this 2nd experiment, T cells specific for HLA-A*02-restricted ILR2 were tested again on tumor cells from AML patients (4 patients; samples AML-01, -02, -03, -06).

The subject of assay [9] is PBMC from healthy donors, CD34-positive progenitor cells, bone marrow cells. Nature of the assay: 51Chromium release assay, peptide-specific CTL on normal cells. The conditions noted are these: for recognition of bone marrow cells by peptide-specific T cells: A*02-positive donors (BM-01, -02); for recognition of CD34-positive bone-marrow-derived progenitor cells by peptide-specific T cells: A*02-positive donors (CD34-01, -02). Type of assay: cell-based, human.
From the text: as §1
T cells recognizing the ILR1-peptide were tested on K562 [human pro-erythroblastic leukemia cell-line, also known as chronic myelogenous leukemia (CML) cell line, which, due to extremely low levels of HLA, functions as a control for excluding NK cells as effector cells], IND (human B lymphoblastoid cell line), Karpas-422 (human B cell lymphoma), Balm-3 (human non-Burkitt B-lymphoma cell line), U266 (human multiple myeloma), REH (Human B cell precursor leukemia), MEC-1 (human chronic B cell leukemia). The same T cells were used to test autologous and allogeneic PBMC from healthy donors as controls. […] The response is not directed against allogeneic major or minor histocompatibility complex antigens. • 3. ILR1 peptide is recognized in an HLA-restricted fashion. • 4. The restriction is allele-specific (specific for A*02). Target: AML

As for “ALCNTDSPL (listed as Homo sapiens) [ILR2]”, the “binding affinity to HLA-A*0201” value in [1] is “strong binding affinity”. Besides, in assay [2], the “generation of CTL lines from healthy HLA-A*0201+ donors” value is given as “CTL lines could be generated” and the “generation of autologous peptide-specific CTL lines from patients” value is “could be generated eliciting efficient cytotoxic activity”. Moreover, in assay [3], the “samples with significant (>20) CTL responses against peptide” value (shortened to “samples with significant”) was determined as 47%; the “# of positively stained spots (IFN-γ ELISPOT)” value (“# of positively stained spots” for short) is 0 per 105 PBMC (4×) and 1 per 105 PBMC (2×) and 3 per 105 PBMC (2×) and 34 per 105 PBMC (3×) and 27 per 105 PBMC and 23 per 105 PBMC and 112 per 105 PBMC and 32 per 105 PBMC. In assay [4], the “patients with significant levels of peptide-specific T cells” value was 40%. Moreover, in assay [5], the “median numbers of positively stained CTL compared to responses to Influenza Matrix recall-antigen” value worked out at 55%; the “samples with significant” value is 56%; the “# of positively stained spots” value is 4 per 105 PBMC and 45 per 105 PBMC and 65 per 105 PBMC and 128 per 105 PBMC and 67 per 105 PBMC and 23 per 105 PBMC and 27 per 105 PBMC and 78 per 105 PBMC and 56 per 105 PBMC and 0 per 105 PBMC (5×) and 2 per 105 PBMC and 57 per 105 PBMC. In assay [6] (effectors: T cells specific for ILR2), the “recognition/lysis of T2 cells pulsed with the peptide” value is “lysed in a dose-dependent fashion”. In addition, the “affinity of peptide-specific CTL to the peptide/MHC complex” value in [6] is given as “high affinity”. Also, in assay [7], the “A*02-positive CLL patients in whom the peptide is a tumor-associated antigen” value stood at 100%; the “recognition of CLL cells from A*02-negative patients by peptide-specific T cells” value was “not recognized in any case (0/4) and 0/2 A*02-negative target cells were recognized”; the “recognition of CLL cells from A*02-positive patients by peptide-specific T cells” value is on record as “recognized in all cases (4/4); also recorded: CLL cells from 3/3 A*02-positive patients were recognized”. In addition, in assay [8], the “recognition of AML cells from A*02-negative patients by peptide-specific T cells” value was “not recognized (4/4); also recorded: not recognized (0/1)”, the “recognition of AML cells from A*02-positive patients by peptide-specific T cells” value is listed as “recognized in all cases (4/4)” and the “A*02-positive AML patients in whom the peptide is a tumor-associated antigen” value is listed as 100%. In assay [9], the “lysis of HLA-A2-negative targets and normal hematopoietic cells by peptide-specific CTL lines” value is “spared”; the “recognition of allogeneic and autologous PBMC from healthy donors by peptide-specific T cells” value is “not recognized”; the “recognition of bone marrow cells by peptide-specific T cells” value was “not recognized”; the “recognition of CD34-positive bone-marrow-derived progenitor cells by peptide-specific T cells” value was “not recognized”.
Take “LLAARAIVAI (listed as Homo sapiens) [ILR1]”: in assay [1], the “binding affinity to HLA-A*0201” value is given as “strong binding affinity”. Besides, in assay [2], the “generation of CTL lines from healthy HLA-A*0201+ donors” value was “CTL lines could be generated” and the “generation of autologous peptide-specific CTL lines from patients” value is “could be generated eliciting efficient cytotoxic activity”. In addition, in [3], the “samples with significant” value turned out to be 40%; the “# of positively stained spots” value is 2 per 105 PBMC (3×) and 3 per 105 PBMC (2×) and 1 per 105 PBMC (2×) and 4 per 105 PBMC and 5 per 105 PBMC and 56 per 105 PBMC and 54 per 105 PBMC and 34 per 105 PBMC (2×) and 33 per 105 PBMC and 25 per 105 PBMC. Also, the “patients with significant levels of peptide-specific T cells” value in [4] was 50%. Moreover, in [5], the “median numbers of positively stained CTL compared to responses to Influenza Matrix recall-antigen” value came out at 76%; the “samples with significant” value is on record as 60%; the “# of positively stained spots” value is 4 per 105 PBMC and 56 per 105 PBMC (2×) and 77 per 105 PBMC and 88 per 105 PBMC and 122 per 105 PBMC and 45 per 105 PBMC and 35 per 105 PBMC and 0 per 105 PBMC (4×) and 1 per 105 PBMC and 2 per 105 PBMC and 3 per 105 PBMC and 68 per 105 PBMC and 100 per 105 PBMC and 83 per 105 PBMC and 121 per 105 PBMC and 93 per 105 PBMC. Also, the “recognition/lysis of T2 cells pulsed with the peptide” value in assay [6] (effectors: T cells specific for ILR1) is on record as “lysed in a dose-dependent fashion”. Moreover, the “affinity of peptide-specific CTL to the peptide/MHC complex” value in assay [6] is “high affinity”. In assay [7], the “A*02-positive CLL patients in whom the peptide is a tumor-associated antigen” value came to 100%; the “recognition of CLL cells from A*02-negative patients by peptide-specific T cells” value was “recognized in any case (0/2) and 0/4 A*02-negative target cells were recognized”; the “recognition of CLL cells from A*02-positive patients by peptide-specific T cells” value was “recognized-in-all cases (3/3); also recorded: CLL cells from 4/4 A*02-positive patients were recognized”. In assay [8], the “recognition of AML cells from A*02-negative patients by peptide-specific T cells” value is recorded as “not recognized (4/4)”, the “recognition of AML cells from A*02-positive patients by peptide-specific T cells” value was “recognized in all cases” and the “A*02-positive AML patients in whom the peptide is a tumor-associated antigen” value was 100%. Besides, in assay [9], the “lysis of HLA-A2-negative targets and normal hematopoietic cells by peptide-specific CTL lines” value is given as “spared”; the “recognition of allogeneic and autologous PBMC from healthy donors by peptide-specific T cells” value is “not recognized”; the “recognition of bone marrow cells by peptide-specific T cells” value is “not recognized”; the “recognition of CD34-positive bone-marrow-derived progenitor cells by peptide-specific T cells” value is listed as “not recognized”.
